Legend:
Assay in all cases: Postemergent herbicidal activity, greenhouse
Assay type in all cases: in vivo
[1] = test system: AMARE Amaranthus retroflexus L. (redroot pigweed)
Description: (§1) Evaluation of Postemergent Herbicidal Activity. Seeds or nutlets of the desired test plant species were planted in Sun Gro Metro-Mix® 360 planting mixture, which typically has a pH of 6.0 to 6.8 and an organic matter content of about 30 percent, in plastic pots with a surface area of 64 square centimeters (cm^2). When required to ensure good germination and healthy plants, a fungicide treatment and/or other chemical or physical treatment was applied. The plants were grown for 7-21 days (d) in a greenhouse with an approximate 15 hour (h) photoperiod which was maintained at about 23-29° C. during the day and 22-28° C. during the night. Nutrients and water were added on a regular basis and supplemental lighting was provided with overhead metal halide 1000-Watt lamps as necessary. The plants were employed for testing when they reached the first or second true leaf stage.
(§2) A weighed amount, determined by the highest rate to be tested, of each test compound was placed in a 25 milliliter (mL) glass vial and was dissolved in 4 mL of a 97:3 volume per volume (v/v) mixture of acetone and dimethyl sulfoxide (DMSO) to obtain concentrated stock solutions. […] The concentrated stock solutions obtained were diluted with 20 mL of an aqueous mixture containing acetone, water, isopropyl alcohol, DMSO, Atplus 411F crop oil concentrate, and Triton® X-155 surfactant in a 48.5:39:10:1.5:1.0:0.02 v/v ratio to obtain spray solutions containing the highest application rates. Additional application rates were obtained by serial dilution of 12 mL of the high rate solution into a solution containing 2 mL of a 97:3 v/v mixture of acetone and DMSO and 10 mL of an aqueous mixture containing acetone, water, isopropyl alcohol, DMSO, Atplus 411F crop oil concentrate, and Triton X-155 surfactant in a 48.5:39:10:1.5:1.0:0.02 v/v ratio to obtain ½X, ¼X, ⅛X and 1/16X rates of the high rate. Compound requirements are based upon a 12 mL application volume at a rate of 187 liters per hectare (L/ha). Formulated compounds were applied to the plant material with an overhead Mandel track sprayer equipped with 8002E nozzles calibrated to deliver 187 L/ha over an application area of 0.503 square meters (m^2) at a spray height of 18 inches ([…]) above the average plant canopy height. Control plants were sprayed in the same manner with the solvent blank.
(§3) Treatments consisted of the methyl ester of 4-amino-3-chloro-6-(4-chloro-2-fluoro-3-methoxyphenyl)pyridine-2-carboxylic acid (Cmpd 1) as technical grade material and fluazifop-P-butyl (Fusilade® DX), haloxyfop-P-methyl (GALLANT® super), and quizalofop-P-ethyl (Assure® II) alone and in combination. The form of compound of formula (I) and fluazifop-P-butyl, haloxyfop-P-methyl, and quizalofop-P-ethyl were applied on an acid equivalent basis.
(§4) The treated plants and control plants were placed in a greenhouse as described above and watered by subirrigation to prevent wash-off of the test compounds. After 14 d, the condition of the test plants as compared with that of the untreated plants was determined visually and scored on a scale of 0 to 100 percent where 0 corresponds to no injury and 100 corresponds to complete kill.
(§5) Results of testing mixtures in accordance with this disclosure and of the components of the mixtures separately against various common weeds in greenhouse trials are reported in the following tables. The reported values are of percent (%) control or percent (%) injury, visually rated. Colby's equation was used to determine the herbicidal effects expected from the mixtures (Colby, S. R. Calculation of the synergistic and antagonistic response of herbicide combinations. Weeds 1967, 15, 20-22.).
(§6) More specifically, the following equation was used to calculate the expected activity of mixtures containing two active ingredients, A and B:
(§7) A=observed efficacy of active ingredient A at the same concentration as used in the mixture; B=observed efficacy of active ingredient B at the same concentration as used in the mixture. […]

[2] = test system: BRSNW Brassica napus (winter oilseed rape)
Description: as §1, §2, §3, §4, §5, §6, §7

[3] = test system: CHEAL Chenopodium album L. (common lambsquarters)
Description: as §1, §2, §3, §4, §5, §6, §7

[4] = test system: CIRAR Cirsium arvense (L.) Scop. (Canada thistle)
Description: as §1, §2, §3, §4, §5, §6, §7

[5] = test system: IPOHE Ipomoea hederacea (L.) Jacq. (ivyleaf momingglory)
Description: as §1, §2, §3, §4, §5, §6, §7

[6] = test system: STEME Stellaria media (L.) Vill. (common chickweed)
Description: as §1, §2, §3, §4, §5, §6, §7

[7] = test system: VIOTR Viola tricolor L. (wild violet)
Description: as §1, §2, §3, §4, §5, §6, §7

Measured: Visual Growth Reduction (%) 14 DAA Obs

CCOC(=O)[C@@H](C)Oc1ccc(Oc2cnc3cc(Cl)ccc3n2)cc1 [Quizalofop-P-ethyl, quizalofop-P-ethyl]
0%: [1]; Quizalofop-P 37.5 g ae/ha | [1]; Quizalofop-P 75 g ae/ha | [1]; Quizalofop-P 150 g ae/ha | [2]; Quizalofop-P 37.5 g ae/ha | [2]; Quizalofop-P 75 g ae/ha | [2]; Quizalofop-P 150 g ae/ha | [3]; Quizalofop-P 37.5 g ae/ha | [3]; Quizalofop-P 75 g ae/ha | [3]; Quizalofop-P 150 g ae/ha | [4]; Quizalofop-P 37.5 g ae/ha | [4]; Quizalofop-P 75 g ae/ha | [4]; Quizalofop-P 150 g ae/ha | [5]; Quizalofop-P 37.5 g ae/ha | [5]; Quizalofop-P 75 g ae/ha | [5]; Quizalofop-P 150 g ae/ha | [6]; Quizalofop-P 37.5 g ae/ha | [6]; Quizalofop-P 75 g ae/ha | [6]; Quizalofop-P 150 g ae/ha | [7]; Quizalofop-P 37.5 g ae/ha | [7]; Quizalofop-P 75 g ae/ha | [7]; Quizalofop-P 150 g ae/ha
